Experimental data reported in the supplement of paper PMC10307832.

Experiments:
Experiment in all cases: relative viability (nuclei count vs DMSO), 5 days (fraction); higher = more cells survive
AGI-6780 + Decitabine = compound: O=C(Nc1cccc(C(F)(F)F)c1)Nc1cc(S(=O)(=O)NC2CC2)ccc1-c1ccsc1 [AGI-6780] + Nc1ncn([C@H]2C[C@H](O)[C@@H](CO)O2)c(=O)n1 [Decitabine] (partner 2 µM)
How it was run: (§1)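 Lung cancer cell lines were pin-tool dosed in 1536-well plates on the day after seeding, with either a lone drug or a fixed anchor-drug dose plus five library-drug doses (not always all listed) in √10 steps. Nuclei were counted on 4× images after 5 days. Relative viability is the ratio of treated-well to vehicle-well nuclei counts, with each value a median of duplicate plates.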

AGI-6780 + Olaparib = compound: O=C(Nc1cccc(C(F)(F)F)c1)Nc1cc(S(=O)(=O)NC2CC2)ccc1-c1ccsc1 [AGI-6780] + O=C(c1cc(Cc2n[nH]c(=O)c3ccccc23)ccc1F)N1CCN(C(=O)C2CC2)CC1 [Olaparib] (partner 8 µM)
How it was run: as §1

AGI-6780 + Lapatinib = compound: O=C(Nc1cccc(C(F)(F)F)c1)Nc1cc(S(=O)(=O)NC2CC2)ccc1-c1ccsc1 [AGI-6780] + CS(=O)(=O)CCNCc1ccc(-c2ccc3ncnc(Nc4ccc(OCc5cccc(F)c5)c(Cl)c4)c3c2)o1 [Lapatinib] (partner 2 µM)
How it was run: as §1

AGI-6780 + AZD7762 = compound: O=C(Nc1cccc(C(F)(F)F)c1)Nc1cc(S(=O)(=O)NC2CC2)ccc1-c1ccsc1 [AGI-6780] + NC(=O)Nc1cc(-c2cccc(F)c2)sc1C(=O)N[C@H]1CCCNC1 [AZD7762] (partner 0.2 µM)
How it was run: as §1

| Cell Line | relative viability (AGI-6780 + Decitabine; first compound 0.08 µM) | relative viability (AGI-6780 + Decitabine; first compound 0.253 µM) | relative viability (AGI-6780 + Decitabine; first compound 0.8 µM) | relative viability (AGI-6780 + Decitabine; first compound 2.53 µM) | relative viability (AGI-6780 + Decitabine; first compound 8 µM) | relative viability (AGI-6780 + Olaparib; first compound 0.08 µM) | relative viability (AGI-6780 + Olaparib; first compound 0.253 µM) | relative viability (AGI-6780 + Olaparib; first compound 0.8 µM) | relative viability (AGI-6780 + Olaparib; first compound 2.53 µM) | relative viability (AGI-6780 + Olaparib; first compound 8 µM) | relative viability (AGI-6780 + Lapatinib; first compound 0.08 µM) | relative viability (AGI-6780 + Lapatinib; first compound 0.253 µM) | relative viability (AGI-6780 + Lapatinib; first compound 0.8 µM) | relative viability (AGI-6780 + Lapatinib; first compound 2.53 µM) | relative viability (AGI-6780 + Lapatinib; first compound 8 µM) | relative viability (AGI-6780 + AZD7762; first compound 0.08 µM) | relative viability (AGI-6780 + AZD7762; first compound 0.253 µM) | relative viability (AGI-6780 + AZD7762; first compound 0.8 µM) | relative viability (AGI-6780 + AZD7762; first compound 2.53 µM) | relative viability (AGI-6780 + AZD7762; first compound 8 µM) |
| --- | --- | --- | --- | --- | --- | --- | --- | --- | --- | --- | --- | --- | --- | --- | --- | --- | --- | --- | --- | --- |
| 201T | 0.88 | 0.841 | 0.861 | 0.87 | 0.878 | 0.869 | 0.837 | 0.84 | 0.871 | 0.775 | 1.03 | 1.01 | 1.02 | 1.01 | 1.02 | 0.612 | 0.577 | 0.565 | 0.535 | 0.656 |
| A-427 |  | 0.538 | 0.573 | 0.508 | 0.527 |  | 0.712 | 0.738 | 0.649 | 0.732 | 1.09 | 0.997 | 1.01 | 0.945 | 0.929 |  | 0.706 | 0.806 | 0.766 | 0.783 |
| ABC-1 |  | 1.42 | 0.87 | 1.05 | 0.924 |  | 0.965 | 0.888 | 0.779 | 0.792 | 1.26 | 1.2 | 1.27 | 1.16 | 1.27 | 0.774 | 0.967 | 0.891 |  | 1.08 |
| BEN | 0.662 | 0.757 | 0.722 |  | 0.836 | 1.02 | 1.02 | 1.22 |  | 0.961 | 0.569 | 0.703 | 0.91 |  | 0.637 | 0.6 | 0.737 | 0.754 |  | 0.721 |
| CAL-12T |  |  |  |  |  | 0.712 | 0.662 | 0.648 | 0.667 | 0.78 |  | 0.582 | 0.876 | 0.572 | 0.619 | 0.616 | 0.649 | 0.806 | 0.781 | 0.687 |
| COR-L23 | 0.449 | 0.455 | 0.477 | 0.399 | 0.416 | 0.349 | 0.385 | 0.274 | 0.32 | 0.387 | 0.905 | 0.919 | 0.982 | 1.31 | 0.997 |  |  |  |  |  |
| COR-L 105 | 0.602 | 0.89 | 0.649 | 0.655 | 0.713 | 0.632 | 0.466 | 0.707 | 0.66 | 0.541 | 0.358 | 0.357 | 0.437 | 0.343 | 0.324 |  |  |  |  |  |
| Calu-6 |  |  |  |  |  | 0.598 | 0.601 | 0.584 | 0.559 | 0.543 | 0.989 | 1.01 | 1.22 | 1.14 | 0.974 |  |  |  |  |  |
| ChaGo-K-1 | 0.507 | 0.534 | 0.512 | 0.455 | 0.425 | 0.437 | 0.457 | 0.377 | 0.411 | 0.422 |  |  |  |  |  | 0.851 | 0.932 | 0.932 | 0.812 | 0.919 |
| EBC-1 |  |  |  |  |  | 0.788 | 0.789 | 0.664 | 0.655 | 0.747 | 0.224 | 0.21 | 0.198 | 0.202 | 0.201 |  |  |  |  |  |
| EKVX | 0.347 | 0.343 | 0.363 | 0.324 | 0.432 | 0.894 | 0.811 | 0.935 | 0.763 | 0.863 | 0.234 | 0.19 | 0.217 | 0.192 | 0.216 | 0.675 | 0.728 | 0.806 | 0.681 | 0.641 |
